Values joined by “and” are separate entries in the source; they are usually repeats but may differ in a detail not shown here. Equal values may be shown once.
Conditions: Liquid, transient hot wire

CCCCCCCCCCCCCCC [pentadecane]
Conditions | thermal conductivity
318.28 K, 1420 kPa | 0.1369 W/m/K
318.31 K, 1420 kPa | 0.138 W/m/K
318.36 K, 15320 kPa | 0.1419 W/m/K
318.4 K, 1420 kPa | 0.1376 W/m/K
318.4 K, 21080 kPa | 0.1429 W/m/K
318.42 K, 21080 kPa | 0.1432 W/m/K
318.44 K, 15320 kPa | 0.1408 W/m/K and 0.1415 W/m/K
318.45 K, 21080 kPa | 0.1432 W/m/K
318.49 K, 5220 kPa | 0.1386 W/m/K
318.5 K, 10340 kPa | 0.1403 W/m/K
318.52 K, 5220 kPa | 0.1382 W/m/K
318.54 K, 10340 kPa | 0.139 W/m/K
318.56 K, 10340 kPa | 0.1394 W/m/K
318.59 K, 5220 kPa | 0.1377 W/m/K
336.96 K, 20240 kPa | 0.1393 W/m/K
337.02 K, 15360 kPa | 0.1403 W/m/K
337.04 K, 5660 kPa | 0.1338 W/m/K
337.09 K, 5660 kPa | 0.1353 W/m/K
337.1 K, 20240 kPa | 0.1399 W/m/K
337.13 K, 20240 kPa | 0.1401 W/m/K
337.14 K, 5660 kPa | 0.1361 W/m/K
337.14 K, 15360 kPa | 0.1368 W/m/K
337.18 K, 1270 kPa | 0.1332 W/m/K
337.2 K, 15360 kPa | 0.1372 W/m/K
337.22 K, 1270 kPa | 0.132 W/m/K
337.24 K, 1270 kPa | 0.1338 W/m/K
337.25 K, 10510 kPa | 0.1368 W/m/K
337.28 K, 10510 kPa | 0.1356 W/m/K
356.45 K, 5190 kPa | 0.1334 W/m/K
356.57 K, 5190 kPa | 0.1301 W/m/K
356.61 K, 5190 kPa | 0.131 W/m/K
356.68 K, 10160 kPa | 0.1329 W/m/K
356.7 K, 1040 kPa | 0.1284 W/m/K
356.71 K, 10160 kPa | 0.1307 W/m/K
356.72 K, 10160 kPa | 0.1314 W/m/K
356.74 K, 15190 kPa | 0.1321 W/m/K
356.75 K, 1040 kPa | 0.13 W/m/K
356.75 K, 20580 kPa | 0.1355 W/m/K
356.79 K, 20580 kPa | 0.1377 W/m/K
356.8 K, 15190 kPa | 0.132 W/m/K
356.83 K, 15190 kPa | 0.1341 W/m/K
356.9 K, 20580 kPa | 0.1346 W/m/K
377.3 K, 5560 kPa | 0.1275 W/m/K
377.31 K, 5560 kPa | 0.1262 W/m/K
377.33 K, 10240 kPa | 0.1296 W/m/K
377.39 K, 5560 kPa | 0.1272 W/m/K
377.4 K, 10240 kPa | 0.1302 W/m/K
377.44 K, 1420 kPa | 0.1248 W/m/K
377.46 K, 10240 kPa | 0.1284 W/m/K
377.52 K, 20480 kPa | 0.131 W/m/K
377.53 K, 1420 kPa | 0.1234 W/m/K
377.6 K, 1420 kPa | 0.1238 W/m/K
377.6 K, 20480 kPa | 0.1304 W/m/K
377.61 K, 20480 kPa | 0.1326 W/m/K
377.62 K, 15010 kPa | 0.1288 W/m/K
377.7 K, 15010 kPa | 0.1284 W/m/K
377.73 K, 15010 kPa | 0.1274 W/m/K
396.74 K, 20460 kPa | 0.1297 W/m/K
396.83 K, 20460 kPa | 0.1291 W/m/K
397.07 K, 20460 kPa | 0.1276 W/m/K
397.22 K, 10360 kPa | 0.1224 W/m/K
397.22 K, 15080 kPa | 0.1248 W/m/K
397.24 K, 10360 kPa | 0.1252 W/m/K
397.31 K, 15080 kPa | 0.1229 W/m/K
397.32 K, 15100 kPa | 0.1242 W/m/K
397.38 K, 10410 kPa | 0.1225 W/m/K
397.42 K, 1330 kPa | 0.1182 W/m/K
397.44 K, 5360 kPa | 0.1209 W/m/K
397.47 K, 1330 kPa | 0.1188 W/m/K
397.49 K, 1330 kPa | 0.1165 W/m/K
397.52 K, 5360 kPa | 0.1202 W/m/K
397.57 K, 5360 kPa | 0.1176 W/m/K
417.11 K, 5290 kPa | 0.121 W/m/K
417.13 K, 20250 kPa | 0.1228 W/m/K
417.16 K, 15230 kPa | 0.1204 W/m/K
417.19 K, 15230 kPa | 0.1227 W/m/K
417.26 K, 15230 kPa | 0.1223 W/m/K
417.27 K, 10550 kPa | 0.1227 W/m/K
417.3 K, 20250 kPa | 0.1195 W/m/K
417.36 K, 1130 kPa | 0.1134 W/m/K
417.37 K, 1130 kPa | 0.115 W/m/K
417.47 K, 10430 kPa | 0.1185 W/m/K
417.48 K, 1130 kPa | 0.1123 W/m/K
417.5 K, 10430 kPa | 0.1178 W/m/K
436.73 K, 20320 kPa | 0.1172 W/m/K
436.78 K, 20320 kPa | 0.1187 W/m/K
436.9 K, 10760 kPa | 0.1134 W/m/K
436.95 K, 5250 kPa | 0.111 W/m/K
436.98 K, 10580 kPa | 0.1145 W/m/K
437.06 K, 1280 kPa | 0.1105 W/m/K
437.06 K, 15070 kPa | 0.1143 W/m/K
437.08 K, 15070 kPa | 0.1135 W/m/K
437.1 K, 5250 kPa | 0.1106 W/m/K
437.1 K, 15070 kPa | 0.1133 W/m/K
437.11 K, 1280 kPa | 0.1079 W/m/K
437.12 K, 10470 kPa | 0.1112 W/m/K
437.14 K, 5250 kPa | 0.1103 W/m/K
437.25 K, 1280 kPa | 0.1089 W/m/K
456.48 K, 20550 kPa | 0.1176 W/m/K
456.52 K, 20460 kPa | 0.1176 W/m/K
456.66 K, 20460 kPa | 0.113 W/m/K
456.86 K, 15300 kPa | 0.1132 W/m/K
456.9 K, 15300 kPa | 0.1124 W/m/K
456.94 K, 15300 kPa | 0.1116 W/m/K
457.02 K, 1540 kPa | 0.1032 W/m/K
457.03 K, 1550 kPa | 0.1063 W/m/K
457.03 K, 10370 kPa | 0.1096 W/m/K
457.04 K, 1560 kPa | 0.1059 W/m/K
457.18 K, 5400 kPa | 0.1082 W/m/K
457.32 K, 5440 kPa | 0.1063 W/m/K
457.33 K, 10250 kPa | 0.1104 W/m/K
457.37 K, 10270 kPa | 0.1084 W/m/K
457.4 K, 5440 kPa | 0.1059 W/m/K
476.68 K, 20310 kPa | 0.114 W/m/K
476.72 K, 15160 kPa | 0.1061 W/m/K
476.9 K, 20850 kPa | 0.1106 W/m/K
476.95 K, 15160 kPa | 0.1094 W/m/K
476.97 K, 10330 kPa | 0.1092 W/m/K
477 K, 15160 kPa | 0.1082 W/m/K
477.06 K, 20970 kPa | 0.1128 W/m/K
477.24 K, 5120 kPa | 0.1033 W/m/K
477.29 K, 1080 kPa | 0.0998 W/m/K
477.29 K, 10330 kPa | 0.1023 W/m/K
477.3 K, 5120 kPa | 0.1024 W/m/K
477.3 K, 10330 kPa | 0.1044 W/m/K
477.32 K, 5120 kPa | 0.1031 W/m/K
477.33 K, 1080 kPa | 0.0988 W/m/K
477.61 K, 1080 kPa | 0.1038 W/m/K
496.62 K, 20420 kPa | 0.111 W/m/K
496.9 K, 20420 kPa | 0.1069 W/m/K
496.94 K, 10500 kPa | 0.102 W/m/K
496.95 K, 5430 kPa | 0.0983 W/m/K
496.95 K, 20420 kPa | 0.1039 W/m/K
496.96 K, 15010 kPa | 0.1033 W/m/K
496.97 K, 15010 kPa | 0.1021 W/m/K and 0.105 W/m/K
497 K, 10530 kPa | 0.1008 W/m/K
497.04 K, 10470 kPa | 0.1024 W/m/K
497.1 K, 5410 kPa | 0.0981 W/m/K
497.15 K, 5430 kPa | 0.0965 W/m/K
516.81 K, 15180 kPa | 0.104 W/m/K
516.84 K, 20110 kPa | 0.0998 W/m/K
516.89 K, 20110 kPa | 0.1031 W/m/K
517 K, 15180 kPa | 0.0984 W/m/K
517 K, 20100 kPa | 0.1021 W/m/K
517.03 K, 15180 kPa | 0.099 W/m/K
517.12 K, 5490 kPa | 0.0948 W/m/K
517.19 K, 5490 kPa | 0.094 W/m/K
517.2 K, 5490 kPa | 0.0941 W/m/K
536.59 K, 20650 kPa | 0.1039 W/m/K and 0.1025 W/m/K
536.85 K, 20650 kPa | 0.0995 W/m/K
536.99 K, 15650 kPa | 0.1001 W/m/K
537.13 K, 15650 kPa | 0.0975 W/m/K
537.14 K, 10120 kPa | 0.0972 W/m/K
537.39 K, 5310 kPa | 0.0872 W/m/K
556.55 K, 5420 kPa | 0.0851 W/m/K
556.82 K, 15300 kPa | 0.1002 W/m/K
556.9 K, 20180 kPa | 0.0999 W/m/K
556.93 K, 10380 kPa | 0.0967 W/m/K
557 K, 20180 kPa | 0.0986 W/m/K
557.05 K, 10380 kPa | 0.0943 W/m/K
557.06 K, 20180 kPa | 0.098 W/m/K
557.12 K, 15300 kPa | 0.0941 W/m/K
557.14 K, 15300 kPa | 0.0924 W/m/K
576.55 K, 20450 kPa | 0.0998 W/m/K
576.95 K, 20450 kPa | 0.0961 W/m/K
577.01 K, 10240 kPa | 0.0944 W/m/K
577.06 K, 20450 kPa | 0.0928 W/m/K
577.08 K, 15190 kPa | 0.0923 W/m/K
577.1 K, 5140 kPa | 0.0897 W/m/K
577.12 K, 10300 kPa | 0.0889 W/m/K
577.12 K, 15190 kPa | 0.0924 W/m/K
577.15 K, 15190 kPa | 0.09 W/m/K
577.16 K, 10320 kPa | 0.0907 W/m/K
577.17 K, 5140 kPa | 0.0888 W/m/K
577.25 K, 5140 kPa | 0.0876 W/m/K
